Measurements from PubChem BioAssay (NCI).
Several values for one entry are separate records, joined by “and”; a condition that tells them apart may be missing. Identical values can stand only once.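 Exposure lasted 48 hours, with cells grown in 96-well plates and compounds tested at five concentrations. GI50 marks 50% less growth. The concentration for full growth arrest is given as TGI.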

Assays:
Experiment in all cases: NCI tumour cell line growth inhibition, 48 h
[1] = test system: DLD-1 colon
[2] = test system: HOP-18 NSCLC
[3] = test system: LXFL 529 NSCLC
[4] = test system: M19-MEL melanoma
[5] = test system: SNB-78 CNS
[6] = test system: XF 498 CNS
[7] = test system: MDA-N
[8] = test system: DMS 114 small cell lung
[9] = test system: RXF-631 renal
[10] = test system: SN12K1 renal
[11] = test system: P388 leukemia
[12] = test system: P388/ADR leukemia

SMILES	TGI [1]	TGI [2]	TGI [3]	TGI [4]	TGI [5]	TGI [6] [µM]	TGI [7]	TGI [8]	also measured
C[CH2][Sn]([CH2]C)([O]C(=O)c1ccc(F)cc1)[O][Sn]([CH2]C)([CH2]C)[O]C(=O)c1ccc(F)cc1	> 100 µM	> 100 µM	25.8 µM	> 100 µM	50.4 µM	31	–	–	GI50 [1]: 23.6 µM; GI50 [2]: > 100 µM; GI50 [3]: 13 µM; GI50 [4]: 45.9 µM; GI50 [5]: 21.1 µM; GI50 [6]: 16.4 µM
Cc1cc(N(CCOS(C)(=O)=O)CCOS(C)(=O)=O)ccc1C=Nc1ccc(-c2csc(-c3ccc(Br)cc3)n2)cc1	–	–	–	–	–	–	56.6 µM	–	–
COC1CC(OC)C(O)C(CO)O1 (stereo unspecified)	> 100 µM	> 100 µM	> 100 µM	> 100 µM	> 100 µM	> 100	–	–	–
CCOC(=O)NC1CC2CCC1(OC)C=C2C (stereo unspecified)	> 100 µM	> 100 µM	> 100 µM	> 100 µM	> 100 µM	> 100	–	> 100 µM	–
C=C[C@H]1C=Cc2c(OC)cccc2[C@@H]1COP1(=S)NC(C)C(c2ccccc2)O1 (stereo partly specified)	> 100 µM	> 100 µM	> 100 µM	> 100 µM	> 100 µM	> 100	–	> 100 µM	–
COC(=O)Cc1cc(=O)n2c([nH]c3ccccc32)c1C#N	> 100 µM	–	–	> 100 µM	> 100 µM	> 100	–	> 100 µM	–
c1ccc2c(CNCCCCCCCCCCCCNCc3cccc4ccccc34)cccc2c1	3.31 µM	9.56 µM	3.23 µM	3.22 µM	3.41 µM	3.11	–	–	–
Cc1ccccc1NC(=O)c1ccc([N+](=O)[O-])cc1	> 100 µM	> 100 µM	> 100 µM	> 100 µM	> 100 µM	> 100	–	> 100 µM	–
CCCCCCCCCCCCC(CCCCCCCCCCCC)OP(=O)(O)O	> 100 µM	> 100 µM	> 100 µM	> 100 µM	> 100 µM	> 100	–	> 100 µM	TGI [9]: > 100 µM
O=C(O)CCSC(=S)Nc1ccc([N+](=O)[O-])cc1	–	–	> 100 µM	–	> 100 µM	–	58.4 µM	> 100 µM	–
O=C(Cc1ccccc1)NS(=O)(=O)c1ccccc1	> 100 µM	> 100 µM	> 100 µM	–	> 100 µM	> 100	–	> 100 µM	TGI [9]: > 100 µM
Cc1ccc(N2C(=O)C(Cl)=C(Cl)C2=O)cc1	40.7 µM	36.3 µM	38.5 µM	41.9 µM	54.9 µM	–	–	36.5 µM	TGI [9]: 42.2 µM
Cn1c(=O)c2[nH]c(CCCCc3nc4c([nH]3)c(=O)n(C)c(=S)n4C)nc2n(C)c1=S	–	–	–	–	–	–	> 100 µM	–	–
CC1=Nc2ccccc2C12C(c1ccccc1)C(c1ccccc1)C(=O)N1c3ccccc3CC12 (stereo unspecified)	> 100 µM	–	> 100 µM	–	> 100 µM	87.2	–	> 100 µM	TGI [9]: > 100 µM
Cc1ccc2c(c1)C=CC(C#N)N2C(=O)Oc1ccccc1 (stereo unspecified)	–	–	–	–	–	–	> 100 µM	–	–
CCOC(=O)C(C(=O)OCC)=c1sc(=C(C(=O)OCC)C(=O)OCC)s1	> 100 µM	–	> 100 µM	> 100 µM	> 100 µM	–	–	–	–
CC(C)c1ccc2nc3ccc(C(=O)NCCN4CCN(c5ccccc5)CC4)cn3c(=O)c2c1	–	–	–	–	–	–	> 100 µM	–	–
CCCCCC/C=C1\CCC(CN(C)C)C1=O (stereo unspecified)	6.18 µM	28.8 µM	3.8 µM	7.25 µM	–	7.49	17.1 µM	8.99 µM	TGI [10]: 4.35 µM
FC(F)(F)c1cccc(C2SCc3nc4ccccc4n32)c1 (stereo unspecified)	> 100 µM	–	> 100 µM	> 100 µM	> 100 µM	–	–	> 100 µM	–
Nc1nc(-c2cccs2)cs1	–	–	–	–	–	–	> 100 µM	–	–
CCCCCCNCCCNc1c2ccccc2nc2cccc([N+](=O)[O-])c12	–	–	–	–	–	–	0.0252 µM and 0.103 µM	–	–
COc1ccc(C2c3c(-c4ccccc4)nn(-c4ccccc4)c3Oc3ncn4nc(CC#N)nc4c32)cc1OC (stereo unspecified)	–	–	–	–	–	–	> 100 µM	–	GI50 [7]: > 100 µM and 16.2 µM

SMILES	TGI [1]	TGI [2]	TGI [3]	TGI [4]	TGI [5]	TGI [6] [µM]	TGI [7]	TGI [8]	also measured
CC1=CC(=O)c2ccc(C)cc2C1=O	–	–	–	–	–	–	1.17 µM	–	–
CC(=O)[O][Bi]([c]1ccccc1)[c]1ccccc1	–	–	–	–	–	–	20.3 µM	–	GI50 [7]: 7.57 µM
COC1=C(OC)[C@]2(OC)c3c(O)c(OC)c4c(c3O[C@@]23O[C@@H](c2ccccc2)CC=C3C1=O)[C@@H](O)C[C@H](c1ccccc1)O4	–	–	–	–	–	–	0.424 µM	–	GI50 [7]: 0.196 µM
COc1cc(Nc2nc3cc(C(F)(F)F)ccc3nc2C)cc(OC)c1OC	–	–	21.7 µM	–	25.9 µM	8.77	–	23.8 µM	–
FC(F)(F)c1nc(-c2ccccc2)oc1Sc1oc(-c2ccccc2)nc1C(F)(F)F	> 100 µM	> 100 µM	> 100 µM	> 100 µM	> 100 µM	> 100	–	> 100 µM	–
O=C(O)[C@@H](NS(=O)(=O)c1ccc([N+](=O)[O-])cc1)c1ccccc1	> 100 µM	> 100 µM	> 100 µM	> 100 µM	–	> 100	–	–	TGI [9]: > 100 µM
c1ccc2c(c1)[nH]c1c2ncc2[nH]c3ccccc3c21	19.7 µM	14.9 µM	13.2 µM	15.8 µM	27.2 µM	3.3	–	6.69 µM	TGI [9]: 5.05 µM
CC(C)c1cccc(C(C)C)c1NC(=O)CCC(=O)NN	> 100 µM	> 100 µM	> 100 µM	> 100 µM	> 100 µM	–	–	> 100 µM	–
Cn1sc2ccccc2c1=S	10.1 µM	28.4 µM	27.1 µM	16.2 µM	31 µM	25.1	–	7.46 µM	TGI [11]: 1.67 µM; TGI [12]: 2.86 µM; TGI [10]: 7.41 µM
CCCN1C(=O)CNC(=O)c2[nH]cnc21	> 100 µM	> 100 µM	> 100 µM	> 100 µM	> 100 µM	> 100	–	> 100 µM	–
O=S(=O)(CCCCl)SCCCCl	–	–	–	–	–	–	> 76.2 µM	–	–
Nc1nc(=Nc2ccccc2)ss1	> 100 µM	> 100 µM	> 100 µM	> 100 µM	> 100 µM	> 100	–	> 100 µM	TGI [9]: > 100 µM
COc1ccc(C2C3=C(COC3=O)Oc3cc4c(cc32)OCO4)cc1 (stereo unspecified)	> 100 µM	89.5 µM	–	> 100 µM	> 100 µM	> 100	–	38.2 µM	–
COc1ccccc1NC(=O)C(CC(C(=O)Nc1ccccc1OC)/C(C)=N/NC(=O)c1ccccc1O)/C(C)=N/NC(=O)c1ccccc1O (stereo unspecified)	> 100 µM	–	> 100 µM	> 100 µM	> 100 µM	> 100	–	> 100 µM	TGI [9]: > 100 µM
CCOC(=O)c1cc(OC(=O)CC)c2c(OC)ccc(OC)c2c1	> 100 µM	> 100 µM	> 100 µM	> 100 µM	–	> 100	–	> 100 µM	–
COC(C)(C)[C@H](O)C(O)CC(C)[C@@H]1CCC23CC12CCC1[C@@]2(C)CCC(OC(C)=O)C(C)(C)C2CC(OC2OC(COC(C)=O)C(O)C(O)C2O)[C@]13C (stereo partly specified)	6.29 µM and 9.73 µM	19.7 µM and 13.3 µM	12.8 µM and 19.2 µM	10.2 µM and 13.8 µM	17.9 µM and 31.7 µM	–	–	8.65 µM and 12.8 µM	GI50 [1]: 3.13 µM; GI50 [8]: 3.62 µM; GI50 [2]: 4.15 µM; GI50 [3]: 6.23 µM; GI50 [4]: 4.04 µM; TGI [9]: 12.8 µM; GI50 [5]: 14 µM
O=C(C=Nc1ccccc1C(=O)[O-])c1cccs1.O=C(C=Nc1ccccc1C(=O)[O-])c1cccs1.[Zn+2]	> 100 µM	> 100 µM	–	–	–	–	–	–	–
Cn1c(=N)n[n+]([O-])c2ccccc21	–	–	–	–	–	–	3.66 µM	–	–
O=c1ccnc(SCc2ccc(Cl)cc2)[nH]1	–	–	–	–	–	–	> 100 µM	–	–
Cc1ccc(NC(=O)c2cc3ccccc3cc2O)c(C)c1.Cc1ccc(NC(=O)c2cc3ccccc3cc2[O-])c(C)c1.[Ni+2]	–	–	–	–	–	–	17.3 µM	–	GI50 [7]: 3.44 µM
CC[CH2][Sn]([CH2]CC)([O]C(=O)Cc1ccc(F)cc1)[O][Sn]([CH2]CC)([CH2]CC)[O]C(=O)Cc1ccc(F)cc1	0.432 µM	0.828 µM	0.099 µM	0.276 µM	–	0.302	1.43 µM	0.119 µM	GI50 [1]: 0.122 µM; GI50 [8]: 0.029 µM; GI50 [2]: 0.25 µM; GI50 [3]: 0.0129 µM; GI50 [4]: 0.0593 µM; GI50 [7]: 0.317 µM; GI50 [6]: 0.161 µM
